Measured values reported in patent publication US20240294553A1, “SIZE-SELECTIVE ACYCLIC CHELATORS AND THEIR USE FOR THE RECOVERY OF RARE EARTH ELEMENTS” (UT-Battelle, LLC, priority 2023, published 2024).

Assays:
[1] = Leaching of rare-earth elements from mixed rare-earth hydroxide; details: RT, 26 h, 20 mM lixiviant; for selectivity of leaching of REEs (percent dissolution): pH 8.2, CHES/CAPS buffer, 15 mg/mL (La,Nd,Eu,Dy,Y)OH3, FIG. 11
Description: A solution of CHES (400 mM) and CAPS (400 mM) was prepared in H2O. The pH was left unadjusted. Buffered solutions of acyclopa at pH 8.2, 9, and 10 were prepared by adding an aliquot of acyclopa (6.65 mL of a 75.17 mM aqueous stock solution) to a volumetric flask (25 mL) containing CHES/CAPS (12.5 mL). The solution was diluted with concentrated NaOH and H2O to the desired final pH. The final ligand concentration was 20 mM and the final CHES and CAPS concentrations were 200 mM each. Buffered solutions of EDTA were prepared in an analogous manner. For control samples without chelator, CHES/CAPS buffer (200 mM each) was prepared separately for each pH.
Leaching experiments were setup as follows: Various quantities (5±0.3 mg, 10±0.5 mg, and 15±0.5 mg) of (La,Nd,Eu,Dy,Y)OH3 were massed into 2 mL flat-bottomed screw-cap polypropylene tubes. An aliquot of lixiviant solution or buffer only (1 mL) was added to each tube. The samples were rotated end-over-end at 35 RPM and ambient temperature (71±1° F.). At pre-determined time points, the suspensions were centrifuged, and an aliquot of the supernatant (10 μL) was carefully removed and placed into 2% HNO3 (4.990 mL) for ICP-MS analysis. The samples were shaken to break up the pellets and returned to the rotating wheels. At the final time point, the suspensions were filtered via a 96-well filter plate (Pall AcroPrep Advance 0.2 μm Supor Short Tip) and sampled for ICP-MS. The final pH of representative samples was recorded. […] Also, the separation factor was calculated according to the equation below. The leaching of REEs (expressed as percent dissolution) from (La,Nd,Eu,Dy,Y)OH3 by acyclopa as a function of pH (pH 8.2, pH 9, or pH 10) using a CHES/CAPS buffer, RT, 26 h, 20 mM lixiviant, and 5 mg/mL (La,Nd,Eu,Dy,Y)OH3 are shown in FIG. 9. The leaching of REEs (expressed as concentration) from (La,Nd,Eu,Dy,Y)OH3 by acyclopa as a function of solid loading at a pH of 9 using a CHES/CAPS buffer, RT, 26 h, 20 mM lixiviant, and 5-15 mg/mL (La,Nd,Eu,Dy,Y)OH3 are shown in FIG. 10. […]

[2] = Recovery and reuse of acyclopa in multiple leach cycles (oxalic acid stripping)
Description: The release of REEs from acyclopa and their subsequent precipitation as REE2(C2O4)3 was investigated as a function of pH and oxalic acid equivalents. Pregnant leach solutions were prepared at pH 8.2 using acyclopa and La(OH)3, and varying equivalents of H2C2O4 were added. The pH of the samples was reduced stepwise to pH 6, 5, 4, and 3 using HCl. The concentration of La remaining in the supernatant at each pH was analyzed by ICP-MS. The release of REEs from acyclopa and their subsequent precipitation as REE2(C2O4)3 as a function of pH and oxalic acid equivalents is shown in FIG. 12.
Next, the ability to reuse acyclopa in multiple leach cycles was investigated. Leaching samples were prepared as described above at pH 8.2 using acyclopa and La(OH)3. […] To this solution, 2 equivalents of oxalic acid were added, and the pH was adjusted to 3 using HCl. The resulting precipitate was removed. The pH of the filtrate was re-adjusted to 8.2 using NaOH, and another portion of La(OH)3 was added. The suspension was stirred for 24 h, and the percent La dissolved was measured by ICP-MS. In subsequent precipitation cycles, only 1 equivalent of oxalic acid was added. Using this method, ˜75% dissolution was maintained over 4 dissolution/precipitation cycles. The results are shown graphically in FIG. 13.

[3] = Protonation constants and lanthanide complex stabilities by potentiometric titration; assay type: binding
Description: Protonation constants and lanthanide (Ln) stability constants of acyclopa and acyclopa-XL were obtained by potentiometric titration using either a Metrohm Titrando 888 titrator or an 855 Robotic Titrosampler connected to an 805 Dosimat. Both titration systems were equipped with Ross Orion combination electrodes (8103BN, ThermoFisher Scientific), Metrohm 806 exchange units with automatic burets (10 mL), and Tiamo 2.5 software. The titration vessel was fitted with a removable glass cell and thermostated at 25° C. using an Isotemp 500LC recirculating chiller (Fisher Scientific). CO2 was excluded from the titration vessel using a small positive pressure of argon bubbled through 30 wt % KOH. […]
Before every ligand or ligand-metal titration, the electrode was calibrated in terms of the hydrogen-ion concentration by titrating a solution of standardized HCl (0.005 M) containing supporting electrolyte (KCl=0.095 M) with standardized KOH. Data within the pH ranges of 2.3-3.2 and 10.8-11.3 were analyzed using the program Glee (version 3.0.21) to obtain the standard electrode potential (E0) and slope factor. […] Their exact concentrations were determined potentiometrically from the two sharp endpoints of their titration curves using the formula ((VEP2−VEP1)/npKa)*[KOH]. […]

Row | Δ log KLa-Lu (difference of stability constants log KML) ([3]; 25° C., ionic strength 0.1 M KCl, La^3+ versus Lu^3+) | SMILES | selectivity of leaching of REEs (percent dissolution) [1] | effect of increasing solid loading on La/Y separation ([1]; pH 9, CHES/CAPS buffer, 5-15 mg/mL (La,Nd,Eu,Dy,Y)OH3, FIG. 10) | percent La dissolved (dissolution of La(OH)3) ([2]; pH 8.2, 24 h, maintained over 4 dissolution/precipitation cycles, ICP-MS, FIG. 13) [%] | initial dissolution of La(OH)3 ([2]; pH 8.2, first leach) | affinity for rare-earth elements (in words) ([3]; log KML versus ionic radius, FIG. 6)
1 | – | O=C(O)CN(CCN(CC(=O)O)CC(=O)O)CC(=O)O [EDTA, ethylenediaminetetraacetic acid, reference compound] | fails to demonstrate any selectivity | – | – | – | –
2 | 4.27 | O=C(O)c1cccc(CN(CCO)CCOCCOCCN(CCO)Cc2cccc(C(=O)O)n2)n1 [acyclopa, 6,6′-(2,11-bis(2-hydroxyethyl)-5,8-dioxa-2,11-diazadodecane-1,12-diyl)dipicolinic acid] | preferentially leaches large over small REEs | significantly increases separative leaching of La from Y | ~75 | nearly all of the La(OH)3 was dissolved initially | high affinity for large, light REEs and low affinity for small, heavy REEs
